This passage reports Hepatotoxicity results from ChEMBL document CHEMBL1697731, “Cheminformatics analysis of assertions mined from literature that describe drug-induced liver injury in different species” (Chem Res Toxicol, 2010).

Data set [1] deals with Hepatotoxicity. Nature of the data set: Literature-mined compound from Fourches et al multi-species drug-induced liver injury (DILI) dataset, effect in non-rodents.
In data set [2] the test system is Hepatotoxicity. Nature of the data set: Literature-mined compound from Fourches et al multi-species drug-induced liver injury (DILI) dataset, effect in humans. The following applies: human.
Data set [3] concerns Hepatotoxicity. Kind of data set: Literature-mined compound from Fourches et al multi-species drug-induced liver injury (DILI) dataset, effect in rodents. The following applies: rodentia.

The structures appear in SMILES notation.

As for `Cc1cccc(Nc2ccccc2C(=O)O)c1C` [MEFENAMIC ACID], the Hepatotoxicity entry is on record as “no drug-induced liver injury reported” in the data set with Hepatotoxicity [1] (Liver), “drug-induced liver injury reported” with Hepatotoxicity [2] (Liver) and “drug-induced liver injury reported” with Hepatotoxicity [3] (Liver).

Take `CC(=O)O[C@]1(C(C)=O)CC[C@H]2[C@@H]3C=C(C)C4=CC(=O)CC[C@]4(C)[C@H]3CC[C@@]21C` [MEGESTROL ACETATE]: the Hepatotoxicity result in the data set on Hepatotoxicity [1] is listed as “no drug-induced liver injury reported”; in the data set on Hepatotoxicity [2] it was “drug-induced liver injury reported”; in the data set with Hepatotoxicity [3], “drug-induced liver injury reported”.

For `CNC[C@H](O)[C@@H](O)[C@H](O)[C@H](O)CO` [MEGLUMINE], the values for the Hepatotoxicity entry in the data set on Hepatotoxicity [1], in the data set on Hepatotoxicity [2] and with Hepatotoxicity [3] were “no drug-induced liver injury reported”, “drug-induced liver injury reported” and “no drug-induced liver injury reported”, respectively.

Turning to `Cc1cnc(NC(=O)C2=C(O)c3ccccc3S(=O)(=O)N2C)s1` [MELOXICAM], the figures for the Hepatotoxicity result in the data set with Hepatotoxicity [1], in the data set with Hepatotoxicity [2] and in the data set with Hepatotoxicity [3] were “no drug-induced liver injury reported”, “drug-induced liver injury reported” and “no drug-induced liver injury reported”, respectively.

As for `CC1=CC(=O)c2ccccc2C1=O` [MENADIONE], the Hepatotoxicity entry in the data set on Hepatotoxicity [1], in the data set on Hepatotoxicity [2] and in the data set with Hepatotoxicity [3] was “drug-induced liver injury reported” throughout.

With `CC1CCC(C(C)C)C(O)C1` (stereo not given) [MENTHOL], the Hepatotoxicity result in the data set on Hepatotoxicity [1] was “no drug-induced liver injury reported”; with Hepatotoxicity [2], “drug-induced liver injury reported”; with Hepatotoxicity [3], “no drug-induced liver injury reported”.

As to `CCOC(=O)C1(c2ccccc2)CCN(C)CC1` [MEPERIDINE], the Hepatotoxicity entry with Hepatotoxicity [1] was “no drug-induced liver injury reported”; with Hepatotoxicity [2], “drug-induced liver injury reported”; with Hepatotoxicity [3], “no drug-induced liver injury reported”.

With `CCC1(c2ccccc2)NC(=O)N(C)C1=O` (stereo not given) [MEPHENYTOIN], the Hepatotoxicity result in the data set on Hepatotoxicity [1] is recorded as “no drug-induced liver injury reported”; in the data set with Hepatotoxicity [2], “no drug-induced liver injury reported”; in the data set on Hepatotoxicity [3] it was “drug-induced liver injury reported”.

`CCC1(c2ccccc2)C(=O)NC(=O)N(C)C1=O` (stereo not given) [MEPHOBARBITAL]: the Hepatotoxicity entry with Hepatotoxicity [1] is on record as “no drug-induced liver injury reported”; in the data set with Hepatotoxicity [2], “no drug-induced liver injury reported”; in the data set with Hepatotoxicity [3] it was “drug-induced liver injury reported”.

Regarding `Cc1cccc(C)c1NC(=O)C1CCCCN1C` (stereo not given) [MEPIVACAINE], the Hepatotoxicity entry with Hepatotoxicity [1] is on record as “no drug-induced liver injury reported”; with Hepatotoxicity [2] it was “no drug-induced liver injury reported”; in the data set with Hepatotoxicity [3], “drug-induced liver injury reported”.

On to `CCCC(C)(COC(N)=O)COC(N)=O` [MEPROBAMATE], for which the Hepatotoxicity entry is given as “no drug-induced liver injury reported” in the data set on Hepatotoxicity [1], “no drug-induced liver injury reported” with Hepatotoxicity [2] and “drug-induced liver injury reported” in the data set on Hepatotoxicity [3].

`COc1ccc(O)cc1` [MEQUINOL]: the Hepatotoxicity result in the data set with Hepatotoxicity [1] is given as “no drug-induced liver injury reported”; in the data set with Hepatotoxicity [2] it was “no drug-induced liver injury reported”; in the data set on Hepatotoxicity [3], “drug-induced liver injury reported”.

As to `Sc1ncnc2nc[nH]c12` [MERCAPTOPURINE ANHYDROUS], the figures for the Hepatotoxicity entry in the data set on Hepatotoxicity [1] (Liver), in the data set on Hepatotoxicity [2] (Liver) and with Hepatotoxicity [3] (Liver) were “no drug-induced liver injury reported”, “drug-induced liver injury reported” and “drug-induced liver injury reported”, respectively.

For the molecule `C[C@@H](O)[C@H]1C(=O)N2C(C(=O)O)=C(S[C@@H]3CN[C@H](C(=O)N(C)C)C3)[C@H](C)[C@H]12` [MEROPENEM], the Hepatotoxicity result is “no drug-induced liver injury reported” in the data set on Hepatotoxicity [1], “drug-induced liver injury reported” with Hepatotoxicity [2] and “no drug-induced liver injury reported” with Hepatotoxicity [3].

For `Nc1ccc(O)c(C(=O)O)c1` [MESALAMINE], the Hepatotoxicity entry in the data set with Hepatotoxicity [1] is given as “no drug-induced liver injury reported”; in the data set with Hepatotoxicity [2], “drug-induced liver injury reported”; with Hepatotoxicity [3], “drug-induced liver injury reported”.

Consider `O=S(=O)([O-])CCS.[Na+]` [MESNA], for which the Hepatotoxicity entry with Hepatotoxicity [1] was “no drug-induced liver injury reported”; with Hepatotoxicity [2], “no drug-induced liver injury reported”; in the data set with Hepatotoxicity [3], “drug-induced liver injury reported”.

`C#C[C@]1(O)CC[C@H]2[C@@H]3CCc4cc(OC)ccc4[C@H]3CC[C@@]21C` [MESTRANOL]: the Hepatotoxicity result in the data set with Hepatotoxicity [1], with Hepatotoxicity [2] and with Hepatotoxicity [3] was “drug-induced liver injury reported” each time.

Take `CN(C)C(=N)N=C(N)N` [METFORMIN]: the Hepatotoxicity entry in the data set on Hepatotoxicity [1] (Liver), in the data set with Hepatotoxicity [2] (Liver) and in the data set on Hepatotoxicity [3] (Liver) was “drug-induced liver injury reported” each time.

Take `CCC(=O)C(CC(C)N(C)C)(c1ccccc1)c1ccccc1` (stereo not given) [METHADONE]: the Hepatotoxicity result with Hepatotoxicity [1] is recorded as “no drug-induced liver injury reported”; in the data set on Hepatotoxicity [2], “drug-induced liver injury reported”; in the data set on Hepatotoxicity [3], “drug-induced liver injury reported”.

For `CN[C@@H](C)Cc1ccccc1` [METHAMPHETAMINE], the Hepatotoxicity entry is “no drug-induced liver injury reported” in the data set with Hepatotoxicity [1], “drug-induced liver injury reported” in the data set on Hepatotoxicity [2] and “drug-induced liver injury reported” in the data set on Hepatotoxicity [3].

`Cc1ccccc1-n1c(C)nc2ccccc2c1=O` [METHAQUALONE]: the Hepatotoxicity entry in the data set with Hepatotoxicity [1] is “no drug-induced liver injury reported”; in the data set with Hepatotoxicity [2], “no drug-induced liver injury reported”; with Hepatotoxicity [3], “drug-induced liver injury reported”.

As to `CSCC[C@H](N)C(=O)O` [METHIONINE], the Hepatotoxicity result in the data set on Hepatotoxicity [1] (Liver), in the data set on Hepatotoxicity [2] (Liver) and with Hepatotoxicity [3] (Liver) was “drug-induced liver injury reported” in each case.

With `C=CCC1(C(C)C#CCC)C(=O)N=C([O-])N(C)C1=O.[Na+]` (stereo not given) [METHOHEXITAL SODIUM], the Hepatotoxicity result is given as “no drug-induced liver injury reported” in the data set with Hepatotoxicity [1], “no drug-induced liver injury reported” in the data set with Hepatotoxicity [2] and “drug-induced liver injury reported” in the data set on Hepatotoxicity [3].

With `CN(Cc1cnc2nc(N)nc(N)c2n1)c1ccc(C(=O)N[C@@H](CCC(=O)O)C(=O)O)cc1` [METHOTREXATE], the Hepatotoxicity entry in the data set with Hepatotoxicity [1], with Hepatotoxicity [2] and in the data set on Hepatotoxicity [3] was “drug-induced liver injury reported” each time.

For the molecule `COc1c2occc2cc2ccc(=O)oc12` [METHOXSALEN], the values for the Hepatotoxicity result in the data set with Hepatotoxicity [1], with Hepatotoxicity [2] and in the data set on Hepatotoxicity [3] were “no drug-induced liver injury reported”, “drug-induced liver injury reported” and “drug-induced liver injury reported”, respectively.

On to `COC(F)(F)C(Cl)Cl` [METHOXYFLURANE], for which the Hepatotoxicity result with Hepatotoxicity [1] is reported as “no drug-induced liver injury reported”; in the data set with Hepatotoxicity [2], “drug-induced liver injury reported”; in the data set on Hepatotoxicity [3], “drug-induced liver injury reported”.

For the molecule `COC(=O)c1ccccc1O` [METHYL SALICYLATE], the results for the Hepatotoxicity result in the data set on Hepatotoxicity [1], in the data set with Hepatotoxicity [2] and in the data set with Hepatotoxicity [3] were “drug-induced liver injury reported”, “no drug-induced liver injury reported” and “no drug-induced liver injury reported”, respectively.

As for `C[C@](N)(Cc1ccc(O)c(O)c1)C(=O)O` [METHYLDOPA], the Hepatotoxicity result in the data set with Hepatotoxicity [1] is “no drug-induced liver injury reported”; in the data set on Hepatotoxicity [2], “drug-induced liver injury reported”; in the data set with Hepatotoxicity [3], “no drug-induced liver injury reported”.

As to `COC(=O)C(c1ccccc1)C1CCCCN1` (stereo not given) [METHYLPHENIDATE], the Hepatotoxicity result in the data set with Hepatotoxicity [1] is reported as “no drug-induced liver injury reported”; in the data set with Hepatotoxicity [2], “drug-induced liver injury reported”; in the data set on Hepatotoxicity [3], “drug-induced liver injury reported”.

For the molecule `C[C@H]1C[C@@H]2[C@H]([C@@H](O)C[C@@]3(C)[C@H]2CC[C@]3(O)C(=O)CO)[C@@]2(C)C=CC(=O)C=C12` [METHYLPREDNISOLONE], the Hepatotoxicity result in the data set with Hepatotoxicity [1] is “no drug-induced liver injury reported”; in the data set on Hepatotoxicity [2], “drug-induced liver injury reported”; in the data set with Hepatotoxicity [3] it was “drug-induced liver injury reported”.

Consider `CCC1(CC)C(=O)NCC(C)C1=O` (stereo not given) [METHYPRYLON], for which the Hepatotoxicity result with Hepatotoxicity [1] is “no drug-induced liver injury reported”; in the data set on Hepatotoxicity [2], “no drug-induced liver injury reported”; in the data set with Hepatotoxicity [3] it was “drug-induced liver injury reported”.

Turning to `CCN(CC)CCNC(=O)c1cc(Cl)c(N)cc1OC` [METOCLOPRAMIDE], the Hepatotoxicity entry in the data set on Hepatotoxicity [1] is “no drug-induced liver injury reported”; in the data set on Hepatotoxicity [2] it was “drug-induced liver injury reported”; with Hepatotoxicity [3], “drug-induced liver injury reported”.

On to `COCCc1ccc(OCC(O)CNC(C)C)cc1` (stereo not given) [METOPROLOL], for which the Hepatotoxicity entry with Hepatotoxicity [1] is listed as “no drug-induced liver injury reported”; with Hepatotoxicity [2], “drug-induced liver injury reported”; with Hepatotoxicity [3], “drug-induced liver injury reported”.

As to `Cc1ncc([N+](=O)[O-])n1CCO` [METRONIDAZOLE], the values for the Hepatotoxicity result in the data set on Hepatotoxicity [1], in the data set on Hepatotoxicity [2] and in the data set with Hepatotoxicity [3] were “no drug-induced liver injury reported”, “drug-induced liver injury reported” and “drug-induced liver injury reported”, respectively.

For `CC(C)(C(=O)c1cccnc1)c1cccnc1` [METYRAPONE], the Hepatotoxicity entry is reported as “no drug-induced liver injury reported” in the data set on Hepatotoxicity [1] (Liver), “drug-induced liver injury reported” in the data set with Hepatotoxicity [2] (Liver) and “drug-induced liver injury reported” in the data set with Hepatotoxicity [3] (Liver).
